# Assay results from ChEMBL document CHEMBL4152332, “Discovery and synthesis of novel magnolol derivatives with potent anticancer activity in non-small cell lung cancer” (Eur J Med Chem, 2018).
# Columns and labels:
# NCI-H1975 = assay: Antitumor activity against human NCI-H1975 cells xenografted in Balb/c mouse assessed as change in tumor mass at 5 mg/kg, iv treated every 2 days for 9 days and measured every 2 days after compound dosing relative to control; type: functional
# Mus musculus = assay: Toxicity in Balb/c mouse implanted with mouse C26 cells assessed as change in body weight at 100 mg/kg, po qd treated for 10 days and measured every 2 days (RVB = 16.4%); type: organism-based; settings: in vivo
smiles,measurement,setting,value
C=CCc1ccc(O)c(-c2cc(CC=C)cc(CN3CCC(N)CC3)c2O)c1,Activity,NCI-H1975,49.2%
same,Activity,Mus musculus,-9.3%
